Experimental data as given in patent publication US9145411B2, “Substituted amino-pyrimidine derivatives” (Asana Biosciences, LLC, priority 2012, dated 2015).

Key:
mTOR kinase = molecular target: T1, mTOR kinase (Homo sapiens, UniProt P42345); assay: mTOR kinase TR-FRET assay; type: biochemical; conditions: 20 μM ATP
T1 construct: purchased Millipore, USA
In short: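 Test compounds were pre-incubated 60 min with mTOR (5 ng), then ULight-p70 S6K (Thr389) peptide (50 nM) and ATP (20 μM) were added in HEPES 50 mM pH 7.5, EGTA, MnCl2 3 mM. After 60 min at room temperature, EDTA stop and Eu-anti-phospho antibody TR-FRET (665/615 nm) gave IC50 from sigmoidal variable-slope fits.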

pAkt(S473) = assay: In-cell Western assay, pAkt(S473), PC3 cells; type: cell-based; conditions: Homo sapiens, PC-3, 2 hours incubation
Experimental: (§1) Cells from human prostate cancer cell line PC3 (American Type Culture Collection (ATCC), Manassas, Va. 20108 USA) were seeded at an optimal density of 22,000 cell/well in 96-well plates containing Ham's F12K medium (90 μL) and incubated overnight. The compound dilutions were carried out in 100% DMSO followed by a dilution in the medium. Test compounds were added in serial dilutions to the wells and incubated for 2 hours. The cells were washed and fixed with 4% paraformaldehyde. After incubation at room temperature for 1 hour in the dark, blocking was done for 2 hours at room temperature. Primary antibodies for pAkt(S473) ([…] phosphorylated at serine 473), pAkt(T308) (Akt phosphorylated at threonine 308) and for pS6RP (S235/236) (phosphorylated at serine 235/236) (commercially available from Cell Signaling Technology®, whose protocol was followed for the in-cell western assay, were diluted to the required concentration and added to the corresponding wells followed by overnight incubation at 4° C. Eu-labeled rabbit (PE) (Perkin-Elmer USA catalog #AD0106) secondary antibody was added and incubated for 2 hours at room temperature. Delfia® enhancement solution (cat #1244-105, Perkin Elmer USA) was subsequently added to the plate before taking the reading at 615 nm with excitation wavelength of 340 nm, after which 0.5 μg/mL of Hoechst® 33258 dye (Catalog #86140-5, Sigma) was added to the plate and fluorescence emission was read at 460 nm with 355 nm excitation, to evaluate the correction factor. IC50 values were calculated using a sigmoidal dose-response curve fit in GraphPad Prism® v5 software.

pS6RP (S235/236) = assay: In-cell Western assay, pS6RP (S235/236), PC3 cells; type: cell-based; conditions: Homo sapiens, PC-3, 2 hours incubation
Experimental: as §1

pAkt(T308) = assay: In-cell Western assay, pAkt(T308), PC3 cells; type: cell-based; conditions: Homo sapiens, PC-3, 2 hours incubation
In short: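 PC3 cells, 22,000/well in Ham's F12K, exposed to serial compound dilutions for 2 h, then fixed and immunostained for each phospho-epitope. Eu-labelled secondary read by time-resolved fluorescence (ex 340, em 615 nm), corrected by Hoechst 33258 signal (ex 355, em 460 nm). IC50 from sigmoidal dose-response fit.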

PI3Kα (wild-type) = molecular target: T2, PI3Kα (wild-type) (Homo sapiens, UniProt P42336); assay: PI3 Kinase TR-FRET assay, PI3Kα (wild-type); type: biochemical; conditions: wild-type P110/P85α, 10 μM ATP
T2 construct: made in house; host or cells: SF9 insect cells
In short: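 Sf9-expressed, Ni-purified p110/p85α (5 ng) with PIP2 was preincubated with compound for 60 min at room temperature in buffer with 40 mM MgCl2 and 5 mM DTT. The reaction ran 30 min at room temperature with 10 μM PIP2 and 10 μM ATP. The TR-FRET 665/615 nm ratio was used to derive IC50 from dose-response curves.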

PC3 cells = assay: XTT assay for cell viability, PC3 cells; type: cell-based; conditions: Homo sapiens, PC-3; PC3 cell proliferation, 96 hours
In short: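 Log-phase PC3 cells (1000/well) were seeded for 24 h, then exposed to serially diluted compounds (DMSO dilutions) for 96 h. Viability was measured by XTT dye conversion at 37 °C, with absorbance read at 465 nm. EC50 was obtained from a sigmoidal dose-response fit.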

T1 sequence (P42345 1362-2549 limits assumed): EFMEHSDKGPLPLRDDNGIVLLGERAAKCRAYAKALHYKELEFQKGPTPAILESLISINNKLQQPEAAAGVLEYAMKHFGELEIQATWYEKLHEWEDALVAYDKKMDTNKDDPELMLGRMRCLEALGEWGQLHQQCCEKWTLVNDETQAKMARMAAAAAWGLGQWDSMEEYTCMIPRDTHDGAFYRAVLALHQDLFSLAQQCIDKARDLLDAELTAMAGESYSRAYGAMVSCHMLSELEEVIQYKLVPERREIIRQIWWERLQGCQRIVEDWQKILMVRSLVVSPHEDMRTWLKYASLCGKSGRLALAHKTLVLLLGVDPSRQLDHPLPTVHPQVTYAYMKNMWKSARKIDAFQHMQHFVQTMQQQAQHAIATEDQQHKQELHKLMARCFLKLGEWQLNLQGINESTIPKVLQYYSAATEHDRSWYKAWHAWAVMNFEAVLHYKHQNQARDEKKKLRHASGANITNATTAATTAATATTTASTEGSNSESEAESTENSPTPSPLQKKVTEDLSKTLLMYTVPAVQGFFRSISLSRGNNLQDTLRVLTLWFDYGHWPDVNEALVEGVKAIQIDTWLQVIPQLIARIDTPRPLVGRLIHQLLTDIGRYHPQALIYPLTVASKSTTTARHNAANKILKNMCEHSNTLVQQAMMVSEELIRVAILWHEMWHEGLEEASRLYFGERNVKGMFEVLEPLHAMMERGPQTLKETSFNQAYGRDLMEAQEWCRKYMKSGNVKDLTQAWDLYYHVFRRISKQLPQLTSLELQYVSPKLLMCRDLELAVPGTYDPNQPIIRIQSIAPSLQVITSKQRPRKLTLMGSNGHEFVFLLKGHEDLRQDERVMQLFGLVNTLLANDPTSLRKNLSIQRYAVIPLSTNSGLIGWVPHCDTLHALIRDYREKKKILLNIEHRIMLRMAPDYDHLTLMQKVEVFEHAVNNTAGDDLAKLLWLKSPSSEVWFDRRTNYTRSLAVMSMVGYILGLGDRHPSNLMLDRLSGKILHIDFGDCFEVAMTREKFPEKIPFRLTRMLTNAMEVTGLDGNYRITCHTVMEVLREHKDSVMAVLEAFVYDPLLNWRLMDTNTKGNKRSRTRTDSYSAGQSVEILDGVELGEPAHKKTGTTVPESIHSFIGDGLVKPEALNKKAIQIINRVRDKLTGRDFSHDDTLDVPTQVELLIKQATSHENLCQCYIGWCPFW
T2 sequence (P42336 whole entry, species assumed): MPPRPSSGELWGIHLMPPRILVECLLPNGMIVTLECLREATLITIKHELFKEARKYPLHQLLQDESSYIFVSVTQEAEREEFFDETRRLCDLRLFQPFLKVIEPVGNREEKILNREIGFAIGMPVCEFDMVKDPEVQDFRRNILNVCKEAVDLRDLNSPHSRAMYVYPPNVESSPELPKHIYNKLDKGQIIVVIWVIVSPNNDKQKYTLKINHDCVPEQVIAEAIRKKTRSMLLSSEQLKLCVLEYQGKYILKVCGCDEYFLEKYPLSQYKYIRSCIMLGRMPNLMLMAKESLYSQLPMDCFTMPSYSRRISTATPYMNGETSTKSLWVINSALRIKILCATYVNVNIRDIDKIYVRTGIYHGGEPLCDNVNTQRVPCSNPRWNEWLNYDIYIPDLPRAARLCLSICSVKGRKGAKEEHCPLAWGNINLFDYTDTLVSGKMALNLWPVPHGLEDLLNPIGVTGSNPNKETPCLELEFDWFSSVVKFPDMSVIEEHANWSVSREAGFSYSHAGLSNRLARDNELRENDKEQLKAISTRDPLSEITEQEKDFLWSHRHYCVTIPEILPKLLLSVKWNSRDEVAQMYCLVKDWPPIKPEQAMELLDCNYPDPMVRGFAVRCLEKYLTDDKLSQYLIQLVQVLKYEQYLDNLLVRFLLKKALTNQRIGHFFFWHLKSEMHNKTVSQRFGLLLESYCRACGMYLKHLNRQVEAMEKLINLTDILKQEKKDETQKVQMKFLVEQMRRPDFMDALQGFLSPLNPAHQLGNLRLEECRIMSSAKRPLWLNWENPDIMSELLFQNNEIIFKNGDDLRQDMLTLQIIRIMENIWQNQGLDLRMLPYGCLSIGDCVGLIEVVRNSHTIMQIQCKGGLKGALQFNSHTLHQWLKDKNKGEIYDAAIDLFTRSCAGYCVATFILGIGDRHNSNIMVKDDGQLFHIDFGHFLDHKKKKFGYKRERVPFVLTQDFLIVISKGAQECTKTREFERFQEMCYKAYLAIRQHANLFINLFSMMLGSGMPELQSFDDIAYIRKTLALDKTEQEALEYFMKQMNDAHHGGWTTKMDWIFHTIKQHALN
T2 sequence (P27986 whole entry partner, species assumed): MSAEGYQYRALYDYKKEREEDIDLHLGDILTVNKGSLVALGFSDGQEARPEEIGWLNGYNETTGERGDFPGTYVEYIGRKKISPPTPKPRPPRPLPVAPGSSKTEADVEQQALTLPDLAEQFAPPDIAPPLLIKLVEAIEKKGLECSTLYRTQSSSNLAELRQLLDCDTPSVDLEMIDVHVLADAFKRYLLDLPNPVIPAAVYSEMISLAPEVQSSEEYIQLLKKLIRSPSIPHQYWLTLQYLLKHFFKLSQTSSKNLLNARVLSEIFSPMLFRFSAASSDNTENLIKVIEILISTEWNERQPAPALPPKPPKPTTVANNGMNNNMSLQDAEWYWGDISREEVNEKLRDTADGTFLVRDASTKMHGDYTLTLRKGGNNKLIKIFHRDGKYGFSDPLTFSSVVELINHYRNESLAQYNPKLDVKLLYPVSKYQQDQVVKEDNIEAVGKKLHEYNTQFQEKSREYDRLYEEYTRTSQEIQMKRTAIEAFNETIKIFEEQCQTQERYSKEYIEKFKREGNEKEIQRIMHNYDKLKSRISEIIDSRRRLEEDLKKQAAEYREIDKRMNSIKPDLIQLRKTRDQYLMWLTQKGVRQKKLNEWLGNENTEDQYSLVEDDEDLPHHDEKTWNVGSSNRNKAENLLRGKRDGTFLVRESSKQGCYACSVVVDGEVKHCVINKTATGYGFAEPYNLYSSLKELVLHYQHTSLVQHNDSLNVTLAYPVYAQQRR

Row | IC50 (mTOR kinase) | IC50 (pAkt(S473)) | IC50 (pS6RP (S235/236)) | IC50 (pAkt(T308)) | IC50 (PI3Kα (wild-type)) | IC50 (PC3 cells) | SMILES
1 | < 50 nM | 100 to 500 nM | 100 to 500 nM | 100 to 500 nM | < 50 nM | 100 to 500 nM | CC(=O)Nc1cccc(-c2cnc3c(N4CCOCC4)nc(-c4cnc(N)nc4)nc3c2)c1 [Example 3, N-(3-(2-(2-Aminopyrimidin-5-yl)-4-morpholinopyrido[3,2-d]pyrimidin-7-yl)-phenyl)acetamide]
2 | < 50 nM | < 100 nM | 100 to 500 nM | 100 to 500 nM | < 50 nM | 100 to 500 nM | Nc1ncc(-c2nc(N3CCOCC3)c3ncc(-c4cccc(NC(=O)C5CC5)c4)cc3n2)cn1 [Example 7, N-(3-(2-(2-Aminopyrimidin-5-yl)-4-morpholinopyrido[3,2-d]pyrimidin-7-yl)-phenyl)cyclopropanecarboxamide]
3 | < 50 nM | 100 to 500 nM | < 100 nM | < 100 nM | < 50 nM | 100 to 500 nM | N#CC1(C(=O)Nc2cccc(-c3cnc4c(N5CCOCC5)nc(-c5cnc(N)nc5)nc4c3)c2)CC1 [Example 61, N-(3-(2-(2-amino-pyrimidin-5-yl)-4-morpholinopyrido[3,2-d]pyrimidin-7-yl)phenyl)-1-cyanocyclopropane-carboxamide]
